Values of other authors as cited in patent publication US12253532B2, “Mass spectrometric quantitation assay for metabolites of leflunomide” (Quest Diagnostics Investments LLC, priority 2010, dated 2025).
Where two headings read alike, the source gives them in different places.

In the case of `CC(O)=C(C#N)C(=O)Nc1ccc(C(F)(F)F)cc1` [teriflunomide, 2-cyano-3-hydroxy-N-(4-trifluoromethylphenyl)-2-butenamide], the “Mean steady state plasma concentration of teriflunomide” value (from here on “Mean steady state plasma concentration”) (patients on daily dosage of 5 mg leflunomide) is listed as “about 8800 ng/mL”, the “Mean steady state plasma concentration” value (patients on daily dosage of 10 mg leflunomide) is listed as ~18,000 ng/mL and the “Mean steady state plasma concentration” value (patients on daily dosage of 25 mg leflunomide) is listed as ~63,000 ng/mL.
